Assays:
tfpia mRNA = test: qRT-PCR of tfpia gene expression in liver and spleen of adult zebrafish; format: in vivo; conditions: adult fish, 5 μl of 0.6 mM injected intravenously, 6 hours post-injection, vs wild-type control
Description: (§1) UNC6852 (MedChem Express, Monmouth Junction, NJ), in 10% DMSO in saline were prepared at four different concentrations (0.075 mM, 0.15 mM, 0.3 mM and 0.6 mM). Eight nl of each of these solutions was injected into the 5 dpf larvae and incubated for 2 hours. For controls, 10% DMSO in saline was injected. For adult fish injections, 5 μl of 0.6 mM UNC6852 was injected intravenously and incubated for 6 hours.
Adult zebrafish were first anesthetized using 1 mM Tricaine in E3 medium. After 2 minutes, once the zebrafish flips on its side, it was removed from the medium, and an incision was made in the ventral surface from the anal pore up to the gills using a pair of scissors. The visible liver and spleen were retrieved using a pair of forceps. […]
To 1 μl of the liver and spleen RNA (1 μg/μl), 4 μl of QSCRIPT™ (gScript™) cDNA SUPERMIX™ (Quanta Bio, Beverly, MA) and 15 μl of nuclease-free water were added. […] The ΔCt values for WT samples were calculated as a difference between Ct values of β-actin and tfpia. The average ΔCt value for WT was then calculated. […] Similarly, in the knockdown samples, from each ΔCt value, the average ΔCt value of the WT was subtracted, and the resulting ΔΔCt value was calculated, followed by the calculation of fold change.

zebrafish larvae = test: Laser-induced venous thrombosis, time to occlusion (TTO) of the caudal vein; format: in vivo; conditions: 5 dpf larvae, 2 hours
Description: as §1
For laser-induced venous thrombosis, 5 dpf larvae were transferred into a 1.5 ml Eppendorf tube containing 0.5 ml E3 medium followed by the addition of 10 μl of 10 mM MS222. After 2 minutes of anesthesia, 0.5 ml of 1.6% low melting agarose at 37° C. was added to the Eppendorf tube, and the contents were mixed gently by pipetting up and down using a transfer pipette. […] The slide with the larvae was focused with a 20× objective of the Nikon OPTIPHOT™ fluorescence microscope. The pulsed nitrogen laser with a wavelength of 445 nm, routed through the coumarin-440 dye (Micro Point Laser, Stanford Research Systems Inc., Sunnyvale, CA), was delivered at 10 hits per cycle through the fluorescence port to hit the mid-region in the caudal vein located in the 5th somite posterior to the anal pore.^22 TTO of the vessel was measured as the time taken to occlude the vessel from the time the laser hits the vessel until the vessel completely occludes.

Cc1ncsc1-c1ccc(CNC(=O)[C@@H]2C[C@@H](O)CN2C(=O)[C@@H](NC(=O)CCCNC(=O)c2ccc(-c3cnc(NCc4ccco4)n4cnnc34)cc2)C(C)(C)C)cc1 [UNC6852]
tfpia mRNA levels (fold change of tfpia gene expression in liver and spleen) (tfpia mRNA): increased tfpia mRNA levels | time to occlusion (TTO) of the caudal vein after laser injury (zebrafish larvae; 8 nl injected intravenously at 0.075, 0.15, 0.3 and 0.6 mM, compared to control larvae (10% DMSO in saline)): dose-dependent prolongation of TTO | concentration giving maximal prolongation of TTO (zebrafish larvae; 8 nl injected intravenously, 4 concentrations tested (0.075-0.6 mM)): 0.6 mM

Source: US12310969B2, “Antithrombotic compositions and methods for using same” (UNIVERSITY OF NORTH TEXAS, priority 2021, dated 2025)
